Measured values: patent US20220280423A1, “GLYMPHATIC DELIVERY BY MANIPULATING PLASMA OSMOLARITY” (University of Rochester, priority 2018, published 2022)

How the values were obtained:
[1] = Radioisotope influx (brain uptake of CSF-delivered tracers); details: 30 min
Description: Fluorescent tracers and antibodies were infused in a total volume of 10 μl at a rate of 2 μl/min or 1 μl/min into the cisterna magna. Radioisotope tracers were infused in a total volume of 5 μl at 1 μl/min.
Radioisotope Influx. […] After 30 min, animals were rapidly decapitated, the skull and dura removed, and the brain harvested. Brain radioactivity was normalized to the total radioactivity detected in a 5 μL aliquot put directly into a scintillation vial immediately before intracisternal injection. All brain tissue was weighed and solubilized in 0.5 mL tissue solubilizer (Solvable, PerkinElmer) overnight. Upon solubilization, 5 mL of scintillation cocktail was added (Ultima Gold, PerkinElmer). The injectate controls were treated in the same way as the tissue samples. All samples were analyzed by liquid scintillation spectrometry using a scintillation counter (LS 6500 Multipurpose Scintillation Counter, Beckman Coulter). The radioactivity (disintegrations per minute: dpm) remaining in the brain after injection (percent of injected dose: %ID) was determined as
where Rb is the radioactivity remaining in the brain at the end of the experiment and Ri is the radioactivity in the injectate controls for each experiment. Influx percentage was deduced as % ID. […]

[2] = test system: glymphatic CSF influx; assay: Transcranial macroscopic imaging of CSF tracer (BSA-647) influx, plasma hypertonicity in awake mice; format: in vivo, C57BL/6 mice
Description: Intracisternal injections. Mice in the KX groups were weighed and anesthetized with a mixture of ketamine (100 mg/kg, i.p.) and xylazine (10 mg/kg, i.p.). Afterwards, animals were fixed in a stereotaxic frame, and the cisterna magna was surgically exposed with the help of a stereomicroscope. The cisternal space was cannulated using a 30 G needle attached via polyethylene tubing to a Hamilton syringe. The needle was secured with cyanoacrylate glue and tracers were infused with a syringe pump (Harvard Apparatus) depending on the experimental paradigm (see below). […]
Transcranial In vivo Macroscopic Imaging. […] The entry of CSF tracers into the brain was imaged by fluorescence macroscopy (MVX10, Olympus) using a PRIOR Lumen 1600-LED light source and Flash 4.0 digital camera (Hamamatsu). […]
Front tracking. To quantify the area and speed of fluorescent CSF tracer influx in the brain, inventors employed an algorithm recently developed in the context of advection-reaction-diffusion (56). […] The algorithm outputs spatially- and temporally-resolved velocity measurements quantifying the front propagation. Influx speed was calculated by averaging over the entire group data to obtain mean front speed measurements for each group. […] A fixed threshold preserved the physical meaning of the front and allowed for quantitative comparison between populations from different experiments. […]

[3] = test system: BBB; assay: Assessment of BBB permeability (FITC-dextran extravasation); format: in vivo, C57BL/6 mice; details: anesthetized mice, 30 min after i.p. injection
Description: Assessment of BBB Permeability. For quantification of BBB disruption, a 1% solution of FITC-conjugated dextran (70 kDa; Sigma-Aldrich) in normal saline (4 mL/kg of body weight) was injected via the femoral vein. The dextran was allowed to circulate for 30 min following plasma tonicity manipulations, at which point a plasma sample was taken and the mice were perfusion-fixed as described below. Positive controls received a 2M mannitol infusion via a catheter in the right external carotid artery (0.64 mL/min for 30 seconds) 5 minutes after the dextran. The brains were harvested, sectioned, and FITC extravasation was imaged and quantified (see below). Plasma concentration of the FITC dextran was calculated by diluting the plasma samples 1:4 with PBS and analyzing them in triplicate on a fluorescence microplate reader (SpectraMax M2, Molecular Devices) at 458 nm excitation, 538 nm emission, with a cutoff above 530 nm at room temperature (24° C.). Dextran concentration was estimated by comparing the relative fluorescence of the samples against a standard curve (0.0-1.0 mg/mL, 0.1 mg/mL steps; FITC-dextran 70 kDa in PBS) fitted with a linear regression. Blood samples with hemolysis were excluded from analysis due to interference with spectrophotometric absorbance readings.
Image Analysis. All images were analyzed using ImageJ software (National Institutes of Health, imagej.nih.gov/ij/) (60). […]

[4] = Plasma osmolality after intraperitoneal injection; format: in vivo, C57BL/6 mice; details: i.p., KX-anesthetized mice, lasting 30 minutes
Description: Solutions. Control mice received isosmotic saline ([…]; 20 μL/g, i.p.). Hyperosmolality was induced either with mannitol (1M in 0.34M NaCl; 30 μL/g, i.p.) or hypertonic saline (1M NaCl in ddH2O; 20 μL/g, i.p.). Thirty minutes after intraperitoneal injection, a plasma sample was taken, and the mouse decapitated. Plasma osmolality was measured in triplicate using a micro-osmometer (Advanced Instruments).

[5] = Intracranial pressure, arterial blood pressure and laser Doppler cerebral blood flow; format: in vivo, C57BL/6 mice
Text: Intracranial and Arterial Blood Pressure Measurements. A separate group of animals were anesthetized with a mixture of ketamine/xylazine. Afterwards, a 30 G needle connected to rigid polyethylene tubing filled with aCSF was inserted into the cisterna magna as described above and an arterial catheter was placed in the femoral artery. The lines were connected to a pressure transducer and monitor (World Precision Instruments). Recordings were allowed to stabilize, and then recorded continuously for 35 min (5 min baseline and 30 min after i.p. injection). The signals were digitized and recorded with a DigiData 1440A digitizer and AxoScope software (Axon Instruments). The intracranial and mean arterial pressure recordings were processed and analyzed using MATLAB (MathWorks).
Laser Doppler Flowmetry. Relative changes in cerebral blood flow (rCBF) were measured using laser Doppler flowmetry (PF5010 Laser Doppler Perfusion Module with microtips, PR 418-1, Perimed). The tip of the fiber optic probe was fixed directly onto the exposed skull with cyanoacrylate glue. Signals were collected using a 1440A digitizer and AxoScope software (Axon Instruments). For each mouse, rCBF was recorded both 5 minutes before and 30 minutes after the administration of i.p. solutions. The rCBF recordings were processed and analyzed using MATLAB (MathWorks).
Consequently, assays were carried out to determine if tonicity-induced changes in one of these parameters might be responsible for the observed enhancement of glymphatic CSF influx. […] This net negative ICP resulted from the outflow of ISF across the BBB (FIG. 15D), and likely provided the necessary driving force to increase CSF influx to cerebral tissues. Importantly. this transfer of brain water to the vascular column occurred across an intact BBB (FIGS. 12A-C).

[6] = test system: glymphatic CSF influx; assay: Transcranial macroscopic imaging of CSF tracer (BSA-647) influx, plasma hypertonicity in KX-anesthetized mice; format: in vivo, C57BL/6 mice
Description: Intracisternal injections. Mice in the KX groups were weighed and anesthetized with a mixture of ketamine (100 mg/kg, i.p.) and xylazine (10 mg/kg, i.p.). Afterwards, animals were fixed in a stereotaxic frame, and the cisterna magna was surgically exposed with the help of a stereomicroscope. The cisternal space was cannulated using a 30 G needle attached via polyethylene tubing to a Hamilton syringe. The needle was secured with cyanoacrylate glue and tracers were infused with a syringe pump (Harvard Apparatus) depending on the experimental paradigm (see below). Mice randomized to the awake group were anesthetized with 2% isoflurane, their skull cemented to a customized head plate, placed in a restraint tube, and then underwent the same surgical procedure as described above. Tracers were allowed to circulate for 30 min after the injection start time and the needle left in place for the duration of the experiment to prevent the CSF compartment from depressurizing. Core temperature (37° C.) and anesthetic depth were maintained throughout the experiment. At the end of 30 min, animals were decapitated, and the brain processed for either fluorescent or radioisotope tracer analysis.
CSF Tracers. AlexaFluor647-conjugated bovine serum albumin (BSA-647, 66 kDa, Invitrogen) was constituted in artificial CSF (0.5% m/v) and used as a fluorescent CSF tracer. […] Fluorescent tracers and antibodies were infused in a total volume of 10 μl at a rate of 2 μl/min or 1 μl/min into the cisterna magna.
Transcranial In vivo Macroscopic Imaging. For in vivo imaging, the skin covering the dorsal calvarium was incised and reflected laterally prior to cannulating the cisterna magna. The entry of CSF tracers into the brain was imaged by fluorescence macroscopy (MVX10, Olympus) using a PRIOR Lumen 1600-LED light source and Flash 4.0 digital camera (Hamamatsu). The mouse fixed on the stereotaxic frame was placed on the microscope stage and images at 20× magnification were acquired in the far-red emission channel (647 nm). Images (2048×2048 pixel; 5.7120 μm/pixel) were collected at 1 min intervals for 0-30 min following injection commencement using the MetaMorph Basic imaging software (Molecular Devices). Exposure time was held constant throughout the duration of the imaging sequence and across experimental groups.
Front tracking. To quantify the area and speed of fluorescent CSF tracer influx in the brain, inventors employed an algorithm recently developed in the context of advection-reaction-diffusion (56). Given a time series of a two-dimensional concentration field, this algorithm tracked the location of the “front” which separates low-concentration and high-concentration regions. The algorithm outputs spatially- and temporally-resolved velocity measurements quantifying the front propagation. Influx speed was calculated by averaging over the entire group data to obtain mean front speed measurements for each group. The propagation front was identified using a threshold of 175 (on an 8-bit scale of 0 to 255); however, it was noted that the results were fairly robust to different threshold choices. This same threshold was used for all-time series of images, which was justified since care was taken to maintain similar imaging conditions across all experiments. A fixed threshold preserved the physical meaning of the front and allowed for quantitative comparison between populations from different experiments.
Solutions. Control mice received isosmotic saline (0.34M NaCl in ddH2O; 20 μL/g, i.p.).

^14C-inulin
increase in the fractional tracer uptake to brain ([1]; plasma hyperosmolality (HTS or mannitol i.p.) vs isotonic): roughly 125%
total injected tracer delivered to the brain parenchyma ([1]; plasma hyperosmolality (HTS or mannitol i.p.)): approximately 40%

OC[C@@H](O)[C@@H](O)[C@H](O)[C@H](O)CO [mannitol]
tracer influx rates across the entire dorsal cortex, faster than isotonic [2]: roughly 1.5 fold
increase in tracer influx area ([2]; at 30 min): circa 20 fold
BBB permeability [3]: no significant increase
plasma osmolality [4]: significantly elevated
relative cerebral blood flow (rCBF) ([5]; 30-min recording after i.p.): slight reduction
ICP relative to the isotonic controls ([5]; 30 min after i.p.): significantly and consistently declined
mean arterial blood pressure (MAP) ([5]; anesthetized mice, i.p.): reduced
reduction of the time to delivery of CSF tracer ([6]; KX-anesthetized mice, i.p.): roughly half
dorsal cortical surface covered by CSF tracer ([6]; KX-anesthetized mice, i.p., 30 min imaging): approximately 60%
increase in the influx area of CSF tracer ([6]; KX-anesthetized mice, i.p., vs isotonic controls): five-fold
penetration of an intracisternally-delivered CSF tracer ([6]; intraperitoneal): doubled
increase of influx speeds of CSF tracer ([6]; intraperitoneal, intracisternally-delivered CSF tracer): about 70%
